# Patent publication US9593146B2, “CD44v6-derived peptides for treating metastasizing cancer” (AMCURE GMBH, priority 2012, dated 2017)
# What was measured:
# APC/Min/+ mice = assay: APC/Min/+ mouse model, tumors in the duodenum; type: in vivo
# Description: The effect of the v6 14mer was tested in the APC/Min/+ model model using 18 week old mice. The animals received an i.p. injection of 20 μg of v6 14mer (mouse 14mer) or control peptide (rat 14mer) three times per week for 6 weeks. Animals (three per group) were sacrificed at the end of the experiment and the duodenum was analyzed for the total number of tumors (FIG. 25).
# HUVEC = assay: Angiogenic response of HUVECs to angiogenic Langerhans islets; type: cell-based, human; conditions: HUVEC/collagen co-culture with islets, 5 to 7 days
# Description: FIG. 20: The response of HUVECs to a mixture of angiogenic factors produced by angiogenic Langerhans islets can be reduced by CD44v6 specific inhibitors. HUVEC cells were mixed with CD44v6 antibody, CD44v6 peptide or control peptide and then suspended in a collagen gel. Hyperplastic angiogenic Langerhans islets isolated from the pancreas of 8-9 week old RIP1Tag2 mice were placed on top of the HUVEC/collagen mixture and overlaid with medium. Every third day new antibody or peptide was added and pictures were taken after 5 to 7 days. The number of islets that induced an angiogenic response of the ECs is given as percentage of all analysed islets. For quantification 60 islets per condition were analysed. Both the CD44v6 antibody and the CD44v6 peptide (human v6 14mer) reduced the angiogenic response, and the reduction obtained with the antibody is significant (p<0.05).
# Langerhans islets are able to stimulate an angiogenic response when co-cultured with HUVEC cells in a collagen matrix. Such angiogenic hyperplastic islets of Langerhans were isolated by collagenase perfusion. They produce a mixture of angiogenic factors and thereby attract the ECs to get organised in capillary like structures. […] In agreement with published data around 60% of islets stimulated an angiogenic response in the control experiment (FIG. 20).
# L3.6pl cells = assay: Regression of established metastases, L3.6pl orthotopic mouse model; type: in vivo, nude mice; conditions: treatment started three weeks after implantation; human v6 peptide or rat control peptide 20 μg i.p.
# Description: In order to examine the regression of metastases (either BSp73ASs6 or L3.6pl) were implanted as described above. Tumor growth was allowed for three weeks. At that time all animals had developed metastases in the control group. Animals were injected i.p. with 20 μg (L3.6pl orthotopic mouse model: human v6 peptide or rat control peptide) or i.v. with 200 μg (rat syngeneic model: rat v6 peptide or mouse control peptide) of peptides three times per week. Animals were killed 23 days after the start of the peptide treatment.
# The specific binding of the CD44v6 peptides to specific areas of the lungs in the rat system and of the liver in the human model raises the question whether these peptides might have an effect on already established metastases. In the experiments described in FIGS. 2 and 4 the peptides were applied early after injection of the tumor cells and repressed completely the establishment of metastases. In order to measure the effect of the CD44v6 peptide on already established metastases, other experimental settings were used. […] At the end of the experiments metastases could be detected in all animals treated with the control peptide (Table 3, FIG. 6B for the BSp73ASs6 cells, Table 3, FIG. 6C for L3.6pl cells) whereas animals treated with the species-specific CD44v6 peptides were free of metastasis. […]
# ErbB receptors = assay: EGF / TGFα induced Erk phosphorylation in MCF7; type: cell-based, human; conditions: 100 ng/ml peptide
# BSp73ASs6 cells = assay: Apoptosis in established lung metastases (cleaved Caspase-3, cleaved Caspase-8), BSp73ASs6 rat model; type: in vivo; conditions: cleaved caspase-8 staining
# Description: 7 μm thick paraffin sections were deparaffinized and rehydrated. For P-Met staining antigen unmasking was achieved by boiling the slides in 1 mM EDTA pH 8.0 followed by incubation for 15 minutes at a sub-boiling temperature, for CD31 staining the sections were treated with Proteinase K (8 μg/ml) for 10 min at 37° C. For immunofluorescence staining of P-Met, unspecific binding was blocked with 5% goat serum (DAKO, Glostrup, Denmark) (diluted in 1×PBS/0.3% Triton X-100) for 60 minutes. In the case of immunohistochemistry, endogenous peroxidases were at first blocked with 3% H2O2 in PBS followed by incubation with biotin blocking system (Dako, Glostrup, Denmark) and then unspecific binding was inhibited by incubation with 5% FCS in PBS. The sections were incubated with the P-Met antibody (D26, dilution 1:50 in 1×PBS/1% BSA/0.3% Triton X-100), Met antibody (C-28, dilution 1:50), GFP antibody (sc-101525, dilution 1:50) or CD31 antibody (5 μg/ml) over night or VFF18 (5 μg/ml) o/n at 4° C. After washing in PBS the sections were incubated with Alexa Fluor R 546 goat anti-rabbit (in case of immunofluorescence P-Met and Met staining, dilution 1:500) or a biotinylated secondary antibody (for immunohistochemical stainings rabbit anti-rat antibody for VFF18 and CD31, goat anti-rabbit for P-Met, cleaved Caspase-3 and cleaved Caspase-8 and rabbit anti-mouse for GFP, dilution 1:500) for 45 minutes. For DAB (3,3′-diaminobenzidine) staining the sections were treated with a streptavidin-peroxidase conjugate (Dako, Glostrup, Denmark) and developed with DAB substrate system (3,3′-diaminobenzidine; Biozol, Eching, Germany). For immunofluorescence DAPI was used for nuclear staining.
# One hypothesis for the disappearance of metastases is that the peptides induce apoptosis of CD44v6-expressing metastatic cells in the secondary organs. In order to test this hypothesis, the experiment described above using the BSp73ASs6 cells was repeated. The cells were injected subcutaneously in syngeneic rats and the tumor was allowed to develop for three weeks. After that time the animals were separated in two groups of 10 animals that were injected either with the specific rat CD44v6 peptide or with the control peptide (mouse) every second day. One day following each injection of the peptide, the lungs of one animal were removed and apoptosis was measured using an antibody that detects the cleaved form of Caspase 3. […] Twelve days after injection of the CD44v6 peptide, less apoptosis was observed. […] From these experiments, it is concluded that the CD44v6 peptide induces apoptosis of metastatic cells.
sequence,measurement,setting,value
"KEQWFGNRWHEGYR [human 14mer, human CD44v6 14mer peptide]",number of tumors in the duodenum,APC/Min/+ mice; i.p. injection for 6 weeks (FIG. 25),reduces the number of tumors in the duodenum
same,decrease according to the size of the tumor,APC/Min/+ mice; mouse 14mer 20 μg i.p. three times per week for 6 weeks,more pronounced in case of small tumors (0-1 mm>1-2 mm>2-5 mm)
same,tumor size in the duodenum,"APC/Min/+ mice; mouse 14mer 20 μg i.p. three times per week for 6 weeks, 18 week old mice, preliminary data",strong decrease of the tumor size in the duodenum
same,tumor number for tumors bigger than 5 mm,"APC/Min/+ mice; mouse 14mer 20 μg i.p. three times per week for 6 weeks, versus control peptide",higher
same,angiogenic response of the ECs,HUVEC,reduced
same,presence of already established (liver) metastases after treatment,L3.6pl cells,eliminate already established metastases
same,Erk phosphorylation upon EGF treatment,ErbB receptors; 20 ng/ml EGF (FIG. 16),blocking of Erk phosphorylation upon EGF treatment
same,Erk phosphorylation upon TGFα induction,ErbB receptors; 20 ng/ml TGFα (FIG. 16),not upon TGFα induction
same,activation of caspase-8 in lung metastases,BSp73ASs6 cells,A kinetic of activation of caspase-8 similar to the one obtained for caspase-3
